Laboratory results: article PMC11067372, “Evaluation of the antiplasmodial efficacy of synthetic 2,5-diphenyloxazole analogs of compounds naturally derived from Oxytropis lanata” (International Journal for Parasitology: Drugs and Drug …, 2024)

Experiments:
P. falciparum 3D7 [1] = experiment: In vitro inhibition of P. falciparum 3D7 (SYBR Green I-based fluorescence assay); format: cell-based, Plasmodium falciparum; set-up: logIC50: unit not given here; details: for IC80 / IC50: Plasmodium falciparum; for IC80: concentration used in the 72-h exposure assay; for logIC50: base-10 log-transformed IC50 against P. falciparum 3D7
Description: The cultures were maintained in an incubator under specific conditions: 37 °C under 5% CO2 and 5% O2.
(§1) The D-sorbitol method (CAS: 50-70-4, Wako, Osaka, Japan) was employed to synchronize parasites, resulting in the attainment of ≥90% ring-stage parasites. These synchronized parasites were then utilized for the experiments within a 2-h window. The assay was performed as follows. First, 50 μL of synchronized parasites with 0.5% parasitemia and 2% hematocrit were added to individual wells of a 96-well plate. Then, 50 μL of the test compounds was introduced to each well. […] Wells containing only test compounds and erythrocytes were included for background correction. […] After the designated incubation time, 100 μL of lysis buffer containing 0.02% (v/v) SYBR Green I was added to each well, the contents of the well were mixed by pipetting, and the plate was incubated in the dark at room temperature for 2 h. […] This assay was repeated four times at each concentration, and the resulting inhibitory values represent the average from three independent trials.
The IC50 or CC50 values were determined from three independent experiments by plotting the logarithmic concentration of the compound against the percent parasite inhibition or cell growth inhibition, respectively. Nonlinear regression analysis was conducted using GraphPad Prism 10 (GraphPad Software, Inc., La Jolla, CA, USA). Comparisons between groups were evaluated using either one-way or two-way ANOVA followed by Tukey's or Fisher's multiple comparisons tests. […] The meaning of each symbol is specified in the corresponding figure legend alongside the name of the employed test.

[2] = In vitro toxicity to human cells (cell viability assay); format: cell-based; details: human foreskin fibroblasts (HFFs), average ± SD, three independent experiments
Description: HFF cells are selected for cytotoxicity testing in this study, providing a physiologically relevant model for the evaluation of drug interactions with human cells. […] This designation makes them a suitable model for the investigation of cellular processes and their sensitivity to toxic substances, which is crucial for the early identification of potential adverse effects of drugs during the development process.
The IC50 or CC50 values were determined from three independent experiments by plotting the logarithmic concentration of the compound against the percent parasite inhibition or cell growth inhibition, respectively. Nonlinear regression analysis was conducted using GraphPad Prism 10 (GraphPad Software, Inc., La Jolla, CA, USA). Comparisons between groups were evaluated using either one-way or two-way ANOVA followed by Tukey's or Fisher's multiple comparisons tests. A p-value of <0.05 was considered to indicate statistical significance and is denoted by an asterisk or a symbol. The meaning of each symbol is specified in the corresponding figure legend alongside the name of the employed test.

P. falciparum 3D7 [3] = experiment: IC50 speed assay (24, 48, 72 h); format: cell-based, Plasmodium falciparum; details: P. falciparum 3D7; for Speed of action (IC50 speed assay): IC50 at 24, 48, 72 h compared; for IC50: Plasmodium falciparum
Description: as §1

P. falciparum 3D7 [4] = experiment: Stage-specific assay on ring and schizont stages (SYBR Green I, 24 h); format: cell-based, Plasmodium falciparum; details: eight concentrations from 100-fold IC50
Description: To ensure uniformity, the parasites underwent a rigorous synchronization process using a two-step sorbitol treatment procedure. This synchronized parasite population was harnessed within a 2-h window for the ring stage, 8–10 h for the trophozoite stage, and 24–26 h for the schizont stage. Subsequent to sorbitol treatment, early trophozoites could be obtained within 6–8 h after the initial sorbitol treatment (within 20 h of development), while early schizonts could be obtained after an additional 16 h of incubation (within 36 h of development). Beyond 36 h, the schizonts mature, causing the rupture of red blood cells (RBCs) and the consequent release of merozoites, which promptly infect new RBCs.
Wells containing only the test compounds and erythrocytes were included to correct for background activity. The 96-well plates were incubated for 24 h at 37 °C in an atmosphere of 5% CO2 and 5% O2. The growth of P. falciparum 3D7 was detected using a SYBR Green I-based fluorescence assay.

P. yoelii 17XNL = format: in vivo; details: C57BL/6 mice, P. yoelii 17XNL; for Parasitemia compared to the untreated control group: 20 mg/kg daily over 10 days; for Body weight or hematocrit levels / Mortality / Peak of parasitemia, trial 1 / Peak of parasitemia, trial 2: 20 mg/kg i.p. once daily for ten days; for Peak of parasitemia, trial 1: untreated 21.7%; for Peak of parasitemia, trial 2: untreated 28.3%
Description: Male C57BL/6 mice, aged eight weeks, were obtained from Japan CLEA (Tokyo, Japan) and housed with six per cage in each group. These mice were kept under conditions of 24 °C, 50% relative humidity, and a light-dark cycle of 8 a.m. to 8 p.m. Access to drinking water and food (CLEA Rodent Diet CE-2; Japan CLEA, Tokyo, Japan) was unrestricted. Prior to experimentation, P. yoelii 17XNL was recovered from cryopreserved erythrocyte stocks via passage in mice. […]. Parasitemia levels were evaluated […] by collecting 2 μL of blood from the mouse tail for thin blood smear preparation. Treatment was initiated upon reaching a parasitemia level of 1%. […]. Parasitemia in infected mice was observed daily by preparing Giemsa-stained thin blood smears (up to 30 dpi). Hematocrit levels were measured every other day using a Celltac-α MEK-6550 (Nihon Kohden, Tokyo, Japan), with 10 μL of blood collected from the mouse tail for each assessment. The animals were handled and treated in accordance with the Guide for the Care and Use of Laboratory Animals by the Ministry of Education, Culture, Sports, Science, and Technology, Japan. Ethical permission for the animal experiment protocols was secured under permit numbers 21–35 and 23–90 from the ethical committee of Obihiro University of Agriculture and Veterinary Medicine.
The median point within this range was selected to maintain a balance between efficacy and safety. Furthermore, a modified Peter's suppression test was utilized to assess the efficacy of antimalarial drugs ([Ager, 1984]; [Peters et al., 1975]). The treatment and observation period were initially set for 4 days. […] […]. […] These findings highlight the effect of the 20 mg/kg/day dosage of Compounds 31 and 32 in reducing parasitemia without causing side effects.

[5] = Table S2, P. falciparum 3D7, value used for SAR analysis, read-out: IC50
[6] = chloroquine-sensitive strain 3D7, 72 h incubation, average ± SD, three independent experiments, read-out: IC50 P. falciparum 3D7
[7] = 24 h incubation, read-out: IC50 24 h
[8] = 48 h incubation, read-out: IC50 48 h
[9] = 72 h incubation, read-out: IC50 72 h

SMILES	IC80 (P. falciparum 3D7 [1]; P. falciparum 3D7) [µM]	IC50 (P. falciparum 3D7 [1]; [5]) [µM]	IC50 (P. falciparum 3D7 [1]; [6]) [µM]	logIC50 (P. falciparum 3D7 [1]; Table S2)	CC50 [2] [µM]	Speed of action (IC50 speed assay) (P. falciparum 3D7 [3])	IC50 (P. falciparum 3D7 [3]; [7]) [µM]	IC50 (P. falciparum 3D7 [3]; [8]) [µM]	IC50 (P. falciparum 3D7 [3]; [9]) [µM]	Stage specificity (ring and schizont stages) (P. falciparum 3D7 [4])	Parasitemia compared to the untreated control group (P. yoelii 17XNL)	Body weight or hematocrit levels (P. yoelii 17XNL)	Mortality (P. yoelii 17XNL)	Peak of parasitemia, trial 1 (P. yoelii 17XNL) [%]	Peak of parasitemia, trial 2 (P. yoelii 17XNL) [%]
COc1cccc(-c2ncc(-c3ccccc3O)o2)c1OC [Compound 31, 2-(2′,3′-dimethoxyphenyl)-5-(2″-hydroxyphenyl)oxazole]	18.1	8.37	8.37 ± 1.28	0.9226	> 336	slow-acting	45.2 ± 10.6	18.8 ± 1.86	8.37 ± 1.28	classic slow-acting profile, which only gains significant activity at elevated concentrations	significant reduction in parasitemia	nor were reductions in body weight or hematocrit levels observed	no instances of mortality	12.7	15.8
COc1cccc(-c2ncc(-c3ccccc3OCc3ccccc3)o2)c1OC [Compound 32, 2-(2′,3′-dimethoxyphenyl)-5-(2″-benzyloxyphenyl)oxazole]	11.7	6.25	6.25 ± 1.39	0.7961	> 258	slow-acting	31.2 ± 4.13	33.4 ± 2.67	6.25 ± 1.39	effect on the ring and schizont stages is comparable to those positive controls	significant reduction in parasitemia	nor were reductions in body weight or hematocrit levels observed	no instances of mortality	12.7	14.0
